From the supplement of paper PMC10307832

Legend:
Assay in all cases: relative viability (nuclei count vs DMSO), 5 days (fraction); higher = more cells survive
BAM7 + Alpelisib = compound: CCOC1=CC=CC=C1N=NC2=C(NN(C2=O)C3=NC(=CS3)C4=CC=CC=C4)C [BAM7] + Cc1nc(NC(=O)N2CCC[C@H]2C(N)=O)sc1-c1ccnc(C(C)(C)C(F)(F)F)c1 [Alpelisib] (partner 2 µM)
Method in brief: (§1)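 The day after seeding in 1536-well plates, lung cancer cell lines were treated by pin tool with a single drug, or with a fixed anchor-drug dose together with five library-drug doses (not always all listed) in √10 steps. After 5 days, a combined fix-and-stain solution (final 0.05% Triton X-100, 1% formaldehyde, 1 ug/ml Hoechst) was added. Nuclei counted on 4× images gave relative viability as treated counts over vehicle counts, reported as the median of duplicate plates.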

BAM7 + Dasatinib = compound: CCOC1=CC=CC=C1N=NC2=C(NN(C2=O)C3=NC(=CS3)C4=CC=CC=C4)C [BAM7] + Cc1nc(Nc2ncc(C(=O)Nc3c(C)cccc3Cl)s2)cc(N2CCN(CCO)CC2)n1 [Dasatinib] (partner 0.075 µM)
Method in brief: as §1

[1] = compound: CCn1c(-c2nonc2N)nc2c(C#CC(C)(C)O)ncc(OC[C@H]3CCCNC3)c21 + C[C@@H](Oc1cc(-c2cnn(C3CCNCC3)c2)cnc1N)c1c(Cl)ccc(F)c1Cl [Crizotinib] (partner 1 µM)
Method in brief: as §1

[2] = compound: CCn1c(-c2nonc2N)nc2c(C#CC(C)(C)O)ncc(OC[C@H]3CCCNC3)c21 + COc1cc2c(Oc3ccc(NC(=O)C4(C(=O)Nc5ccc(F)cc5)CC4)cc3F)ccnc2cc1OCCCN1CCOCC1 [Foretinib] (partner 0.25 µM)
Method in brief: as §1

Row | Cell Line | relative viability (BAM7 + Alpelisib; first compound 0.5 µM) | relative viability (BAM7 + Alpelisib; first compound 5 µM) | relative viability (BAM7 + Alpelisib; first compound 15.81 µM) | relative viability (BAM7 + Alpelisib; first compound 50 µM) | relative viability (BAM7 + Dasatinib; first compound 0.5 µM) | relative viability (BAM7 + Dasatinib; first compound 5 µM) | relative viability (BAM7 + Dasatinib; first compound 15.81 µM) | relative viability (BAM7 + Dasatinib; first compound 50 µM) | relative viability ([1]; first compound 0.01 µM) | relative viability ([1]; first compound 0.03162 µM) | relative viability ([1]; first compound 0.1 µM) | relative viability ([1]; first compound 0.3162 µM) | relative viability ([1]; first compound 1 µM) | relative viability ([2]; first compound 0.01 µM) | relative viability ([2]; first compound 0.03162 µM) | relative viability ([2]; first compound 0.1 µM) | relative viability ([2]; first compound 0.3162 µM) | relative viability ([2]; first compound 1 µM)
1 | NCI-H1755 | 0.994 | 0.982 | 0.902 | 0.948 | 0.432 | 0.466 | 0.419 | 0.458 | 0.877 | 0.866 | 0.84 | 0.892 | 0.849 | 0.993 | 0.933 | 0.899 | 0.841 | 0.95
2 | NCI-H1915 | 1.08 | 1.11 | 1.03 | 1.05 | 0.321 | 0.327 | 0.279 | 0.303 | 0.909 | 0.909 | 0.809 | 0.872 | 0.856 | 1.11 | 1.1 | 1.08 | 1.01 | 1
3 | NCI-H1944 | 0.875 | 0.902 | 0.661 | 0.81 | 0.217 | 0.234 | 0.225 | 0.279 | 1.07 | 1.07 | 1.02 | 1.07 | 1.09 | 0.755 | 0.888 | 0.821 | 0.851 | 0.876
4 | NCI-H1975 | 0.539 | 0.508 | – | 0.548 | 0.309 | 0.341 | 0.3 | 0.296 | 0.945 | 1.08 | 0.893 | 1.03 | 0.98 | 0.983 | 1.04 | 0.937 | 0.95 | 0.885
5 | NCI-H1993 | 0.766 | 0.689 | 0.585 | 0.629 | 0.492 | 0.541 | 0.502 | 0.575 | 0.856 | 0.877 | 0.92 | 0.775 | 0.887 | 0.693 | 0.835 | 0.785 | 0.733 | 0.714
6 | NCI-H2009 | 1.21 | 1.15 | 1.1 | 1.15 | 0.291 | 0.283 | 0.265 | 0.275 | 0.941 | 1.03 | 1.09 | 1.02 | 1.07 | 1.22 | 1.21 | 1.31 | 1.22 | 1.22
7 | NCI-H2023 | 0.639 | 0.507 | 0.502 | 0.485 | 0.519 | 0.465 | 0.393 | 0.481 | 0.683 | 0.67 | 0.557 | 0.583 | 0.549 | 0.775 | 0.887 | 0.801 | 0.781 | 0.755
8 | NCI-H2085 | 0.957 | 1.07 | 0.834 | 0.981 | 0.237 | 0.211 | 0.229 | 0.217 | 0.882 | 0.882 | 0.802 | 0.817 | 0.749 | 0.857 | 0.901 | 0.985 | 0.994 | 0.881
9 | NCI-H2087 | 1.17 | 1.15 | 0.917 | 0.985 | 0.939 | 0.991 | 0.765 | 0.844 | 0.729 | 0.748 | 0.942 | 0.847 | 0.732 | 0.927 | 1.06 | 1.15 | 0.981 | 1.03
10 | NCI-H2126 | 0.703 | 0.677 | 0.606 | 0.704 | 0.584 | 0.484 | 0.436 | 0.526 | 1.01 | 1 | 0.993 | 0.974 | 1.06 | 1.1 | 1.16 | 1.25 | 1.11 | 1.2
11 | NCI-H2170 | 0.631 | 0.603 | 0.537 | 0.672 | 0.644 | 0.683 | 0.731 | 0.777 | 1.16 | 1.26 | 1.1 | 1.15 | 1.24 | 0.987 | 1.01 | 0.972 | 0.996 | 1.07
12 | NCI-H2228 | 0.863 | 0.879 | 0.763 | 0.607 | 0.598 | 0.639 | 0.509 | 0.521 | 0.552 | 0.56 | 0.476 | 0.378 | 0.33 | 0.762 | 0.985 | 0.767 | 0.555 | 0.872
13 | NCI-H2347 | 1.03 | 1.23 | 1.04 | 0.985 | 0.303 | 0.345 | – | 0.339 | 0.7 | 0.815 | 0.723 | 0.708 | 0.813 | 0.836 | 0.841 | – | 0.798 | 0.676
14 | NCI-H2405 | 0.862 | 0.773 | 0.684 | 0.839 | 0.195 | 0.201 | 0.211 | 0.243 | 0.888 | 0.911 | 0.704 | 0.798 | 0.848 | 1.06 | 1.05 | 0.948 | 1.03 | 1.05
15 | NCI-H3122 | 0.881 | 0.822 | 0.804 | 0.763 | 0.438 | 0.835 | 0.838 | 0.725 | 0.276 | 0.312 | 0.264 | 0.283 | 0.276 | 0.923 | 0.941 | 0.962 | 1 | 0.883
16 | PC-3 [JPC-3] | 1.02 | 0.99 | 0.876 | 0.907 | 1.04 | 0.91 | 1.02 | 0.946 | 0.944 | 0.988 | 1.04 | 0.909 | 0.993 | 0.982 | 1.04 | 1.12 | 0.902 | 1.08
17 | PC-14 | 0.983 | 0.841 | 0.915 | 0.906 | 0.229 | 0.211 | 0.228 | 0.295 | 0.925 | 0.863 | 0.944 | 0.94 | 0.839 | 0.933 | 1.02 | 1.02 | 0.894 | 1
18 | RERF-LC-KJ | 0.814 | 0.823 | 0.716 | 0.766 | 0.639 | 0.539 | 0.323 | 0.358 | 0.808 | 0.788 | 0.815 | 0.829 | 0.837 | 0.858 | 0.821 | 0.921 | 0.767 | 0.973
